Test results reported in US10058550B2, “Methods of treating heart failure” (priority 2015, dated 2018).

Assays:
heart failure rat model = experiment: Cardiac contractility in vivo in heart failure rat model (MI rat model); conditions: for MI Rat Model dP/dtmax (%): in vivo, heart failure (MI) rat model, acute administration for 30 min; for cardiac contractility as measured by dP/dtmax (derivative of left ventricular pressure): male Lewis rats, heart failure by ligation of left descending coronary artery, ejection fraction <35%, dosed acutely for 30 min
Description: Male Lewis rats (Charles River, USA) at 2-3 months of age were used for the study. […] APJ agonists were administered dose dependently acutely for a period of 30 min.

[1] = system: isolated perfused rat hearts; experiment: Load independent inotropic effects, ex vivo assay (isolated perfused rat hearts, Langendorff); conditions: percent change over vehicle
From the text: Evidence for Load Independent Inotropic Effects with APJ Agonists using Ex Vivo Assay (Isolated Perfused Rat Hearts)
Naive Sprague Dawley® SD rats (Harlan laboratories (Livermore, Calif. USA)) were anesthetized and hearts were excised followed by cannulation in the Langendorff apparatus (Harvard apparatus, Holliston, Mass. USA) via aorta. […] The pressure of the solution causes the aortic valve to shut and the perfusate is then forced into the ostium and the coronary vessels. This allows the heart to beat for several h. A balloon was inserted into the left ventricle (LV) to measure dP/dtmax (derivative of left ventricular pressure) as an index of cardiac contractility. The APJ agonist was perfused constantly in a dose dependent manner into the heart to examine cardiac contractility.

human APJ receptor = human APJ receptor (Homo sapiens (Human), UniProt P35414); experiment: biochemical; type: biochemical; conditions: read-out: Activity hAPJ SPA EC50 IP
Sequence of human APJ receptor (P35414 whole entry): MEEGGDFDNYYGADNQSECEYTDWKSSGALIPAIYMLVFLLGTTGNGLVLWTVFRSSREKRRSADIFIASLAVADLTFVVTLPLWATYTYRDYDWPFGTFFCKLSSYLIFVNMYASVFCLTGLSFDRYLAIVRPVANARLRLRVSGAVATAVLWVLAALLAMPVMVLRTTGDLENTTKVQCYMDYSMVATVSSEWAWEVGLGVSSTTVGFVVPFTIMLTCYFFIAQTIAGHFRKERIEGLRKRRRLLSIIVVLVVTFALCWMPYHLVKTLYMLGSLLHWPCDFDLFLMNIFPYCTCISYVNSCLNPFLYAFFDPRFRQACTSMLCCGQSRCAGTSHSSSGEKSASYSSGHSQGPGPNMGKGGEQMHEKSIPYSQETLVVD
In short: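 Agonist-stimulated [35S]GTPγS (0.2 nM) binding was read by SPA after 90 min at room temperature. Buffer: 20 mM HEPES pH 7.5 with 5 mM MgCl2, 200 mM NaCl, 3 μM GDP, 0.1% BSA; membranes were from a stable human APJ CHO line. EC50 values are averages of independent runs, fitted by non-linear regression.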

heart failure rats = experiment: Cardiac function with APJ small molecule agonists in the presence of ACE inhibitor captopril in heart failure rats in vivo; set-up: species or system rat; conditions: captopril alone, acute settings
From the text: The interaction between […] (ACE2) and Apelin biology is complicated. To investigate the interaction between the Apelin-APJ and ACE signalling pathways, we examined the improvement in cardiac function with APJ small molecule agonists in the presence of ACE inhibitor captopril in heart failure rats in vivo.

[2] = system: isolated perfused rat hearts; experiment: Langendorff isolated perfused rat heart (left ventricular dP/dt); conditions: ex vivo naive Sprague Dawley rat hearts, Langendorff apparatus, as a function of concentration
APJ/AT1R = APJ/AT1R (Homo sapiens (Human), UniProt P30556+P35414); experiment: IP1 assay (TR-FRET) for allosteric interaction between APJ and AT1R in CHO-K1 APJ/AT1R cells; type: cell-based; conditions: addition of losartan
Sequence of APJ/AT1R (P35414 whole entry, looked up): as the sequence (P35414 whole entry) above
Sequence of APJ/AT1R (P30556 whole entry, looked up): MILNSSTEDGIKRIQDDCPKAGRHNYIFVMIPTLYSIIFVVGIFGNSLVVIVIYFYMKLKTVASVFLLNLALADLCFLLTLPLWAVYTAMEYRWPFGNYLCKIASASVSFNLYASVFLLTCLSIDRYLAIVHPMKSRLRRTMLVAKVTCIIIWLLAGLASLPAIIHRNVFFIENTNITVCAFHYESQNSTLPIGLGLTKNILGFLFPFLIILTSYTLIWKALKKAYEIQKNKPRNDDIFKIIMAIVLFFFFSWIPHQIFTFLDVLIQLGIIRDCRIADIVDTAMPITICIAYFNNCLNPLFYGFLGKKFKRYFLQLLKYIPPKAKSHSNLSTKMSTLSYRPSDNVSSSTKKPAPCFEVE
Description: Single and double stable recombinant cell lines were generated for human APJ and the AT1R receptor in CHO K1 cells tagged either with FLAG or hemagglutinin (HA) tag. Briefly, the CHO-K1 APJ/AT1R cells were seeded in culture medium of DMEM-F12 and 10% FBS at a density of 15 k/well in a 96 well plate overnight. The next day, the culture medium was replaced with medium containing no serum for 4 hours. The compound AngII at a range of concentrations (1 pM-10 μM) with or without different concentrations of APJ agonists were diluted in stimulation buffer and added to the cell plate. The plate was sealed and incubated for 1 hour. This was followed by addition of IP-d2 conjugate followed by europium cryptate antibody conjugate into the wells. The plate was sealed, followed with incubation for 2 hours at room temperature. Time-resolved fluorescence resonance energy (TR-FRET) at 620 nm and 665 nm was measured after 2 hours with an Envision reader. The signal ratios and delta F were calculated and the amount of IP1 produced was inversely proportional to the TR-FRET ratio, 665/620 nm.

Structure (SMILES) | MI Rat Model dP/dtmax (%) (heart failure rat model) | Isolated Heart Assay dP/dtmax (%) [1] | Isolated Heart Assay dP/dtmin (%) [1] | EC50 (human APJ receptor) | contractility (heart failure rats) | ejection fraction (heart failure rats) | cardiac contractility as measured by dP/dtmax (derivative of left ventricular pressure) (heart failure rat model) | left ventricular dP/dtmax (load independent cardiac contractility) [2] | left ventricular dP/dtmin (load independent cardiac relaxation) [2] | positive cooperativity induced by APJ small molecule agonists in the presence of AngII (APJ/AT1R)
COc1cccc(OC)c1-n1c(NS(=O)(=O)[C@H](C)[C@@H](OC)c2ncc(Cl)cn2)nnc1-c1cncc(C)c1 (single isomer, unassigned) [Example 557.0] | No effect | 17.0% | 20.0% | 0.31 nM | – | – | – | – | – | –
C[C@H](CS)C(=O)N1CCC[C@H]1C(=O)O [Captopril, captopril] | – | – | – | – | does not show a marked improvement | does not show a marked improvement | – | – | – | –
COc1cccc(OC)c1-n1c(NS(=O)(=O)[C@@H](C)[C@H](O)c2ncc(C)cn2)nnc1-c1cccc(C)n1 [Example 99.0, (1R,2S)-N-(4-(2,6-dimethoxyphenyl)-5-(6-methylpyridin-2-yl)-4H-1,2,4-triazol-3-yl)-1-hydroxy-1-(5-methylpyrimidin-2-yl)propane-2-sulfonamide] | – | – | – | 2.3 nM | – | – | increase in cardiac contractility | increases load independent cardiac contractility | increases load independent cardiac relaxation | –
CCO[C@H](c1ncc(C)cn1)[C@H](C)S(=O)(=O)Nc1nnc(-c2cccnc2)n1-c1c(OC)cccc1OC [Example 109.0, (1R,2S)-N-(4-(2,6-dimethoxyphenyl)-5-(pyridin-3-yl)-4H-1,2,4-triazol-3-yl)-1-ethoxy-1-(5-methylpyrimidin-2-yl)propane-2-sulfonamide] | 20% | 15% | 25% | 0.85 nM | – | – | increase in cardiac contractility | increases load independent cardiac contractility | increases load independent cardiac relaxation | –
COc1cccc(OC)c1-n1c(NS(=O)(=O)[C@@H](C)[C@H](C)c2ncc(C)cn2)nnc1-c1cncc(C)c1 [Example 263.0, (2S,3R)—N-(4-(2,6-dimethoxyphenyl)-5-(5-methylpyridin-3-yl)-4H-1,2,4-triazol-3-yl)-3-(5-methylpyrimidin-2-yl)butane-2-sulfonamide] | – | – | – | – | – | – | increase in cardiac contractility | increases load independent cardiac contractility | increases load independent cardiac relaxation | –
COc1cccc(OC)c1-n1c(NS(=O)(=O)[C@@H](C)[C@H](C)c2ncc(C)cn2)nnc1-c1cccnc1 [Example 586.0, (2S,3R)—N-(4-(2,6-dimethoxyphenyl)-5-(3-pyridinyl)-4H-1,2,4-triazol-3-yl)-3-(5-methyl-2-pyrimidinyl)-2-butanesulfonamide] | – | – | – | 0.3 nM | – | – | increase in cardiac contractility | increases load independent cardiac contractility | increases load independent cardiac relaxation | –
CCCCc1nc(Cl)c(CO)n1Cc1ccc(-c2ccccc2-c2nn[nH]n2)cc1 [losartan] | – | – | – | – | – | – | – | – | – | relieved this cooperativity
